Experimental data reported in patent publication US4511509A, “3-Alkylidine azetidine compound and their production” (Kowa Co. Ltd., priority 1982, dated 1985).
Values after ≈ are worked out from the molar mass of the structure shown.

Experiments:
Assay in all cases: antibacterial activity, MIC (Table)
Type in all cases: cell-based
Proteus inconstans 93 = conditions: Providencia alcalifaciens
Salmonella typhi H - 901 = conditions: Salmonella enterica
[1] = tested on: Streptococcus aureus 209p JC-1
[2] = tested on: Escherichia coli 68 (PC ase IV)
[3] = tested on: Bacillus subtilis ATCC 6633; conditions: ATCC6633
Proteus vulgaris IID874 = tested on: Proteus vulgaris IID874
Serratia marcescens NHL = tested on: Serratia marcescens NHL
[4] = tested on: Escherichia coli NIHJ JC-2; conditions: NIHJJC2
[5] = tested on: Pseudomonas aeruginosa NCTC 10490; conditions: NCTC10490
[6] = tested on: Pseudomonas putida IID 5121; conditions: IID5121
[7] = tested on: Escherichia coli RECl (PC ase I)
[8] = tested on: Klebsiella pneumoniae PCO 602; conditions: PCO602
[9] = tested on: Escherichia coli 59 (PC ase II)
Proteus inconstans 113 = conditions: Providencia alcalifaciens
[10] = tested on: Streptococcus aureus Smith

In the case of C/C(CO)=C1\C(=O)N2C(C(=O)O)=C(Sc3ncccn3)C[C@H]12 [(5R)6(E)-(1-methyl-2-hydroxyethylidene)-3-(2-pyrimidinylthio)-1-azabicyclo[3.2.0]hept-2-en-7-one-2-carboxylic acid], the MIC (Proteus inconstans 93) is reported as 0.2 µg/mL (≈ 0.626 µM), the MIC (Salmonella typhi H - 901) is reported as 0.2 µg/mL (≈ 0.626 µM) and the MIC [1] is reported as 0.05 µg/mL (≈ 0.157 µM). The MIC [2] was 0.2 µg/mL (≈ 0.626 µM), the MIC [3] was 0.78 µg/mL (≈ 2.44 µM) and the MIC (Proteus vulgaris IID874) was 0.05 µg/mL (≈ 0.157 µM). For the same molecule, the MIC (Serratia marcescens NHL) was 0.78 µg/mL (≈ 2.44 µM), the MIC [4] was 0.39 µg/mL (≈ 1.22 µM) and the MIC [5] was 1.56 µg/mL (≈ 4.89 µM). It also gave an MIC [6] of 100 µg/mL (≈ 313 µM), an MIC [7] of 0.39 µg/mL (≈ 1.22 µM) and an MIC [8] of 0.39 µg/mL (≈ 1.22 µM). It also gave an MIC [9] of 0.2 µg/mL (≈ 0.626 µM), an MIC (Proteus inconstans 113) of 0.78 µg/mL (≈ 2.44 µM) and an MIC [10] of 0.2 µg/mL (≈ 0.626 µM).
